Patent US10336734B2, “Inhibitors of ACK1/TNK2 tyrosine kinase” (H. LEE MOFFITT CANCER CENTER AND RESEARCH INSTITUTE, INC., priority 2015, dated 2019)

Legend:
[1] = system: pY88-H4 epigenetic marks upstream of AR gene; test: ChIP-qPCR at AREM1-3 sites in C4-2B cells; format: cell-based
Excerpt: FIG. 5A through 5J. AR transcription is regulated by epigenetic modification of histone H4 at tyrosine 88 is sensitized byc(R)-9bMS. FIG. 5A through 5D show ChIP with pY88-H4 antibodies, followed by qPCR using primers corresponding to AREM1-3 and control (gene desert) sites of C4-2B cells treated with (R)-9bMS. Data represent mean±s.e.m. (n=3) from one of three independent experiments. **p<0.01. […] Data represent mean±s.e.m. (n=3) from one of three independent experiments. *p<0.05, **p<0.01. FIGS. 5F and 5G show ChIP with pY88-H4 antibodies, followed by qPCR using primers corresponding to AREM2 and AREM1 site of C4-2B cells transfected with ACK1, AR and control siRNA. Data represent mean±s.e.m. (n=3) from one of three independent experiments. *p<0.05, **p<0.01. […] Data represent mean±s.e.m. (n=3) from one of three independent experiments. *p<0.05. FIGS. 5I and 5J show qRT-PCR analysis of AR and PSA in LAPC4 cells transfected with FLAG-tagged H4 or Y88F mutant H4 expressing constructs. Data represent mean±s.e.m. (n=3) from one of three independent experiments.*p<0.05, **p<0.01.
FIG. 6A through 6F. Recruitment of the MLL2/WDR5 complex and deposition of H3K4me3 epigenetic marks upstream of the AR gen can be erased by (R)-9bMS. […]

LAPC4 = test: Cell viability/proliferation of PC cell lines, LAPC4; format: cell-based; settings: LAPC4, 96 hr; read-out: IC50, suppression of proliferation
Excerpt: (§1) FIG. 7A through 7F. (R)-9bMS overcome enzalutamide-resistance of CRPCs. […] Data represent mean±s.e.m. (n=3) from one of three independent experiments. […] Data represent mean±s.e.m. (n=3) from one of three independent experiments. […] Data represent mean±standard error of the mean (s.e.m.) (n=3) from one of three independent experiments.*p<0.05. […] Cell cycle analysis of prostate cell lines treated with (R)-9bMS (24 hr).
(§2) To investigate the anti-tumor activity of ACK1 inhibitor, we first analyzed the ability (R)-9bMS to suppress proliferation of PC cell lines.

[2] = system: enzalutamide-resistant C4-2B cell line; test: Cell viability and AR expression, enzalutamide-resistant C4-2B cells; format: cell-based
Excerpt: as §1, with “7F.” for “7F. (R)-9bMS overcome enzalutamide-resistance of CRPCs.”

C4-2B = test: Cell viability/proliferation of PC cell lines, C4-2B; format: cell-based; settings: 96 hr, read-out: IC50, suppression of proliferation
Excerpt: as §1, §2

VCaP = test: Cell viability/proliferation of PC cell lines, VCaP; format: cell-based; settings: 96 hr, read-out: IC50, suppression of proliferation
Excerpt: as §1, §2

AR-V7 = AR-V7 mRNA (qRT-PCR) and variant protein (immunoblot) in PC cells; format: cell-based; settings: VCaP 3.5 μM, 16 hr; VCaP and LAPC4 immunoblot
Excerpt: FIG. 1A through 1F. Inhibition of ACK1 kinase activity by (R)-9bMS (DZ1-067 mesylate salt) suppresses AR and AR-V7 expression. […] Data represent mean±s.e.m. (n=3) from one of three independent experiments. *p<0.05. FIG. 1B and FIG. 1C show immunoblot analysis of androgen-deprived VCaP and LAPC4 cells treated with (R)-9bMS. […] FIG. 1E and FIG. 1F show qRT-PCR analysis of AR and PSA in PC3 cells transfected with caACK or kdACK constructs. Data represent mean±s.e.m. (n=3) from one of three independent experiments. **p<0.01.
We assessed AR-V7 mRNA levels upon treatment with (R)-9bMS (DZ1-067 mesylate salt).

[3] = system: LNCaP-caAck xenograft tumors; test: LNCaP-caAck xenograft in castrated SCID mice; format: in vivo; settings: 50 mg/kg, 6 days a week for four weeks
Description: FIG. 9. ACK1 inhibitor (R)-9bMS suppresses xenograft tumor growth in castrated mice. Male SCID mice were castrated and injected with LNCaP-caAck cells. Once mice formed palpable tumors, mice were injected with vehicle (10% DMSO in PBS) or (R)-9bMS (50 mg/kg of body) for 6 days a week for four weeks (n=7 mice for each treatment). Tumor volumes were measured.

[4] = system: histone H4 Y88-phosphorylation; test: Immunoblot of H4 Y88-phosphorylation in ligand-treated PC cells; format: cell-based; settings: serum and androgen starved PC cells, ligand activated; 5 μM (DHT 10 nM)
Description: FIG. 2A through 2C. ACK1 inhibitor (R)-9bMS suppresses epigenetic modification of histone H4 at tyrosine 88.
To assess endogenous H4-phosphorylation, serum and androgen starved PC cells were treated with ligands to activate ACK1. It led to robust H4 Y88-phosphorylation, suppressed upon (R)-9bMS treatment (FIG. 2A). […] Moreover, H4 Y88-phosphorylation was also detected in human CRPCs using mass spectrometry, which was validated by immunoblotting (FIG. 3A-3C).

C4-2B xenograft tumors = test: C4-2B CRPC xenograft in castrated SCID mice; format: in vivo
Description: FIG. 8A through 8F. (R)-9bMS mitigates CRPC tumor growth. […] Once formed palpable tumors, mice were injected with vehicle (10% DMSO in PBS) or (R)-9bMS (50 mg/kg of body) for 6 days a week for five weeks (n=9 mice for each treatment). Tumor volumes were measured. Data represent mean±s.e.m. […] Data represent mean±standard error of the mean (s.e.m.) (n=3) from one of three independent experiments. **p<0.01.
To investigate the effect of (R)-9bMS on CRPC xenograft tumor growth, C4-2B cells were implanted in castrated SCID mice.

PC cells = test: Cell cycle and apoptosis of PC cells; format: cell-based
Excerpt: as §1, §2

LNCaP = test: Cell viability/proliferation of PC cell lines, LNCaP; format: cell-based; settings: 96 hr, read-out: IC50, suppression of proliferation
Excerpt: as §1, §2

[5] = 50 mg/kg, 6 days a week for five weeks

IC50 (VCaP): 450 nM
Organ histology (H&E) (C4-2B xenograft tumors; 50 mg/kg): histologically normal
IC50 (LNCaP): 1800 nM
Structure (SMILES): CN1CCN(c2ccc(Nc3ncc(Cl)c(NC[C@H]4CCCO4)n3)cc2)CC1 [(R)-9bMS]
pY88-H4 marks at AREM1-3 sites ([1]; ChIP real time PCR): erased
WDR5, MLL2, H3K4me3 methyl marks and RNA Pol II at AREM1-3 sites ([1]; absence of androgen): significantly reduced
IC50 (LAPC4): 750 nM
Sensitivity of enzalutamide-resistant cells ([2]; enzalutamide-resistant C4-2B cells, 96 hr): retained sensitivity
AR expression in enzalutamide-resistant cells ([2]; immunoblot): able to suppress AR expression
IC50 (C4-2B): 400 nM
AR-V7 mRNA and variant protein levels (AR-V7): significantly reduced
Xenograft tumor growth [3]: displayed sensitivity
H4 Y88-phosphorylation [4]: suppressed
body weights (C4-2B xenograft tumors; 50 mg/kg): no statistical difference
CRPC tumor growth (C4-2B xenograft tumors; [5]): significant decrease
tumor weight (C4-2B xenograft tumors; [5]): significant decrease
AR, PSA & TMPRSS2 mRNAs levels in tumors (C4-2B xenograft tumors; qRT-PCR of xenograft tumors): significant reduction
Cell cycle (PC cells; 24 hr): arrest PC cells in G2 phase
Apoptosis (PC cells; C4-2B cells): inducing apoptosis
